In patent US20060111350A1, “Solid forms of linezolid and processes for preparation thereof” (priority 2004, published 2006):
Each block holds one compound with its values, some of them ahead of it.

What was measured:
[1] = below about 85°; cited from earlier work
[2] = Thermal stability of crystal forms upon heating (Table 4)
[3] = Stability and hygroscopicity of linezolid Form VI stored at 0-100% relative humidity; assay type: physicochemical
Method: The stability and hygroscopicity of linezolid Form VI was tested by storing it for 19 days at a relative humidity of between 0 and 100% at room temperature.

[4] = Stability of linezolid Form X stored at 0-100% relative humidity; assay type: physicochemical
Method: The stability of linezolid Form X was tested by storing it for 8 days at a relative humidity of between 0 and 100% at room temperature.

[5] = 19 days, room temperature, relative humidity 80%
[6] = 19 days, room temperature, relative humidity 100%
[7] = 8 days, room temperature, relative humidity 100%

SMILES: CC(=O)NC[C@H]1CN(c2ccc(N3CCOCC3)c(F)c2)C(=O)O1 [Form II]
Relative stability of the crystal form [1]: most stable form

SMILES: CC(=O)NC[C@H]1CN(c2ccc(N3CCOCC3)c(F)c2)C(=O)O1 [Form TIII, (S)—N-[[3-[3-Fluoro-4-(4-morpholinyl)phenyl]-2-oxo-5-oxazo-lidinyl]methyl]-acetamide]
Crystal form after heating ([2]; heating temp. 60 °C, listed as TIII): TIII | Crystal form after heating ([2]; heating temp. 130 °C): TIII

SMILES: CC(=O)NC[C@H]1CN(c2ccc(N3CCOCC3)c(F)c2)C(=O)O1 [Form V, (S)—N-[[3-[3-Fluoro-4-(4-morpholinyl)phenyl]-2-oxo-5-oxazo-lidinyl]methyl]-acetamide]
Thermal stability (transformation into other forms upon heating) ([2]; heating at about 60° C. to about 130° C.): thermally stable

The remaining lines, values ahead:

Solvent content ([3]; 19 days, room temperature, relative humidity 0%): 0.4% | Solvent content ([3]; 19 days, room temperature, relative humidity 20%): 0.4% | Solvent content ([3]; 19 days, room temperature, relative humidity 40%): 0.4% | Solvent content ([3]; 19 days, room temperature, relative humidity 60%): 0.3% | Crystal Form [3, 5]: VI + Amorphous | Solvent content [3, 5]: 31.7% | Crystal Form [3, 6]: Amorphous | Solvent content [3, 6]: 53.2% | Solvent content ([3]; As is (before storage)): 0.9% | water content ([3]; As is (before storage)): 0.7% | Form conversion ([3]; at 80-100% RH): converts to Amorphous Linezolid | Stability and hygroscopicity ([3]; between 0-60% RH): stable and non-hygroscopic | Hygroscopicity ([3]; on high relative humidity): hygroscopic
SMILES: CC(=O)NC[C@H]1CN(c2ccc(N3CCOCC3)c(F)c2)C(=O)O1 [Form VI, (S)—N-[[3-[3-Fluoro-4-(4-morpholinyl)phenyl]-2-oxo-5-oxazo-lidinyl]methyl]-acetamide]

Crystal form after heating ([2]; heating temp. 60 °C, listed as X): Amorphous | Solvent content ([4]; 8 days, room temperature, relative humidity 0%): 1.6% | Solvent content ([4]; 8 days, room temperature, relative humidity 20%): 1.5% | Solvent content ([4]; 8 days, room temperature, relative humidity 40%): 1.4% | Solvent content ([4]; 8 days, room temperature, relative humidity 60%): 2.0% | Solvent content ([4]; 8 days, room temperature, relative humidity 80%): 2.4% | Crystal Form [4, 7]: Form X + II | Solvent content [4, 7]: 0.7% | Solvent content ([4]; As is (before storage)): 1.9 (water content 1.9) % | water content ([4]; As is (before storage)): 1.9 (water content 1.9) % | Form conversion ([4]; at 100% RH): some of Form X converts to Form II | Stability ([4]; between 0-80% RH): stable
SMILES: CC(=O)NC[C@H]1CN(c2ccc(N3CCOCC3)c(F)c2)C(=O)O1 [Form X, (S)—N-[[3-[3-Fluoro-4-(4-morpholinyl)phenyl]-2-oxo-5-oxazo-lidinyl]methyl]-acetamide]
